Here are results for 4 compounds from patent US5134137A, “Cephalosporin antibiotics” (The Upjohn Company, priority 1990, dated 1992).

The structures appear in SMILES notation. Values after ≈ are worked out from the molar mass of the structure shown. Where two headings read alike, the source gives them in different places.

In series [1] the test system is P. hemolytica. Kind of series: Systemic infection model in mice, ED50, P. hemolytica. The class given is in vivo. Conditions: Mus musculus, sc, 144 h, strain UC6532, lactamase producing, subcutaneous, 0, 24, 48 hours post infection, 50% survival six days post infection, per day, read-out: ED50 (95% confidence limits). The procedure:
(§1) Experimental Infections and Antitiotic Treatment (for ED50 in mice tests).
(§2) Mice are infected and treated with the test antibiotic compound according to procedures described previously [Yancey, Jr., R. J. et at. supra].
(§3) The test antibiotic compound is administered subcutaneously immediately following infection, then at 24 hours and 48 hours post infection. The medium effective dose (ED50) number is determined for all infections. The ED50 value is defined as the calculated concentration of the test antibiotic compound in mg. of compound per kilogram of mouse body weight per day at which 50% of the animals survived six days post infection.

For series [2], the system named is Salmonella typhimurium. The series can be described thus: Systemic infection model in mice, ED50, Salmonella typhimurium. The note with it: Salmonella enterica, TYPHIMURIUM / UC6164, sc, 144 h, strain UC6164, lactamase producing, subcutaneous, 0, 24, 48 hours post infection, 50% survival six days post infection, per day, read-out: ED50 (95% confidence limits). The class given is in vivo. As to the method: as §1, §2, §3

Series [3] has as its system Salmonella typhimurium. Kind of series: MIC, agar dilution, Salmonella typhimurium. The note with it: Salmonella enterica, read-out: MIC. The class given is cell-based. Summed up:
(§4)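 Each organism receives an inoculum of approx. 10^3–10^4 CFU, taken from a 5% CO2 BHI subculture standardised to 0.5 McFarland and diluted 1:20. It is spotted on Mueller-Hinton agar containing the compound, then incubated for 16–18 h at 37 °C with CO2.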
In general terms: Agar dilution tests growth on a series of plates holding different concentrations.

Series [4] is described as follows: Serum half life / duration of antibiotic action. The note with it: inferred from results against Salmonella typhimurium.
Series [5] has as its system Streptococcus agalactiae. The series can be described thus: MIC, agar dilution, Streptococcus agalactiae. The class given is cell-based. Conditions: Streptococcus agalactiae, read-out: MIC. Summed up: as §4
In series [6] the test system is Streptococcus suis. The series can be described thus: MIC, agar dilution, Streptococcus suis. The class given is cell-based. The note with it: Streptococcus suis; strain 650-2; read-out: MIC. Summed up: as §4
In series [7] the test system is Streptococcus uberis. Kind of series: MIC, agar dilution, Streptococcus uberis. Conditions: Streptococcus uberis, read-out: MIC. The class given is cell-based. Summed up: as §4
The test system of series [8] is Staphylococcus aureus. Kind of series: MIC, agar dilution, Staphylococcus aureus. The class given is cell-based. Conditions: Staphylococcus aureus, read-out: MIC. Summed up: as §4
Series [9] concerns Pasteurella hemolytica. The series can be described thus: MIC (minimum inhibitory concentration), agar dilution, Pasteurella hemolytica. The note with it: Pasteurella, read-out: MIC. The class given is cell-based. Summed up: as §4
In series [10] the test system is Streptococcus dysgalactiae. The series can be described thus: MIC, agar dilution, Streptococcus dysgalactiae. The class given is cell-based. The note with it: Streptococcus dysgalactiae; strain UC251; read-out: MIC. Summed up: as §4
Series [11] deals with Salmonella choleraesuis. The series can be described thus: MIC, agar dilution, Salmonella choleraesuis. The note with it: Salmonella enterica, read-out: MIC. The class given is cell-based. Summed up: as §4
In series [12] the test system is Pseudomonas aeruginosa. The series can be described thus: MIC, agar dilution, Pseudomonas aeruginosa. The class given is cell-based. Conditions: Pseudomonas aeruginosa, ATCC27853; strain ATCC 27853; read-out: MIC. Summed up: as §4
The subject of series [13] is Micrococcus luteus. Kind of series: MIC, agar dilution, Micrococcus luteus. The note with it: Micrococcus luteus; strain UC130; read-out: MIC. The class given is cell-based. Summed up: as §4
Series [14] concerns Pasteurella multocida. Kind of series: MIC, agar dilution, Pasteurella multocida. The class given is cell-based. The note with it: Pasteurella multocida; strain UC9581; read-out: MIC. Summed up: as §4
The test system of series [15] is Escherichia coli. The series can be described thus: MIC, agar dilution, Escherichia coli. Conditions: Escherichia coli, read-out: MIC. The class given is cell-based. Summed up:
as §4

Series [16] deals with Streptococcus bovis. Kind of series: MIC, agar dilution, Streptococcus bovis. The class given is cell-based. Conditions: Streptococcus equinus; strain UC6281; read-out: MIC. Summed up:
as §4

Series [17] has as its system Bordetella bronchiseptica. Kind of series: MIC, agar dilution, Bordetella bronchiseptica. The class given is cell-based. Conditions: Bordetella bronchiseptica; strain UC6313; read-out: MIC. Summed up: as §4
In series [18] the test system is Corynebacterium pyogenes. The series can be described thus: MIC, agar dilution, Corynebacterium pyogenes. The class given is cell-based. The note with it: strain 213-2; read-out: MIC. Summed up:
as §4

Series [19] has as its system Enterococcus faecalis. The series can be described thus: MIC, agar dilution, Enterococcus faecalis. The note with it: Enterococcus faecalis; strain UC694; read-out: MIC. The class given is cell-based. Summed up: (§5)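 Agar dilution in Mueller-Hinton agar with antibiotic dilutions of 128 to 0.0625 µg/ml added to molten agar; compound amounts corrected for base activity from batch purity. Spot inoculum was ~10^3–10^4 CFU from a 4–6 h BHI culture adjusted to 0.5 McFarland and diluted 1:20. Plates were read after 16–18 h at 37 °C under CO2.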

Series [20] has as its system Enterococcus faecium. The series can be described thus: MIC, agar dilution, Enterococcus faecium. The class given is cell-based. The note with it: Enterococcus faecium; strain UC241; read-out: MIC. Summed up:
as §5

[21] abbreviates: TYPHIMURIUM / UC6162, strain UC6162.
Setting [22] is: TYPHIMURIUM / UC6164, strain UC6164.
[23] abbreviates: CHOLERAESUIS / UC6073, strain UC6073.
Where [24] appears, read: CHOLERAESUIS / UC6077, strain UC6077.

A word on the ED50: it is the dose at which the effect has come halfway, by size or by number of responders. Take `CC1(C)S[C@@H]2[C@H](NC(=O)[C@H](N)c3ccccc3)C(=O)N2[C@H]1C(=O)O` [ampicillin]: the ED50 in series [1] and in series [2] was over 100 mg/kg in each case.

Broadly, the MIC is the least concentration at which growth counts as inhibited. As for `CO/N=C(\C(=O)N[C@@H]1C(=O)N2C(C(=O)O)=C(CSCC(N)=O)CS[C@H]12)c1csc(N)n1` [Example 7, 7-[2-(2-amino-1,3-thiazol-4-yl)-2-(methoxyimino)acetamido]-3-(aminocarbonylmethylthiomethyl)-3-cephem-4-carboxylic acid], the MIC in series [3] (setting [21]) is 1 µg/mL (≈ 2.06 µM); in [3] (setting [22]), 1 µg/mL (≈ 2.06 µM); in [5] (strain UC3947), at most 0.06 µg/mL; in series [5] (strain UC6892), at most 0.06 µg/mL; in series [6] it was 0.13 µg/mL (≈ 0.267 µM); in series [7] (strain UC3946), 0.13 µg/mL (≈ 0.267 µM). Also, the MIC in series [7] (strain UC6159) is 32 µg/mL (≈ 65.8 µM); in [8] (strain UC6093) it was 4 µg/mL (≈ 8.22 µM); in [8] (strain UC6097), 4 µg/mL (≈ 8.22 µM); in [8] (strain UC9203), 4 µg/mL (≈ 8.22 µM); in [9] (strain UC6531), at most 0.06 µg/mL; in series [9] (strain UC6532) it was at most 0.06 µg/mL. The MIC in series [9] (strain UC9582) is at most 0.06 µg/mL; in series [10], at most 0.06 µg/mL; in [11] (setting [23]) it was 1 µg/mL (≈ 2.06 µM); in series [11] (setting [24]), 2 µg/mL (≈ 4.11 µM); in [12], over 32 µg/mL; in series [13], 0.25 µg/mL (≈ 0.514 µM). In addition, the MIC in series [14] was at most 0.06 µg/mL; in [15] (strain UC3784), 1 µg/mL (≈ 2.06 µM); in series [15] (strain UC6720) it was 1 µg/mL (≈ 2.06 µM); in series [15] (strain UC9670), 1 µg/mL (≈ 2.06 µM); in series [16], 0.13 µg/mL (≈ 0.267 µM); in [17], over 32 µg/mL. The values for the MIC in series [18], in series [19] and in [20] were 16 µg/mL (≈ 32.9 µM), over 32 µg/mL and over 32 µg/mL, respectively. Also, the serum half life entry in series [4] is listed as “longer serum half life”.

For `CCCCSSCC1=C(C(=O)O)N2C(=O)[C@@H](NC(=O)/C(=N\OC)c3csc(N)n3)[C@H]2SC1` [Example 12], the MIC was 16 µg/mL (≈ 30.9 µM) in [3] (setting [21]); 32 µg/mL (≈ 61.8 µM) in series [3] (setting [22]); 2 µg/mL (≈ 3.86 µM) in [5] (strain UC3947); over 32 µg/mL in series [5] (strain UC6892); at most 0.06 µg/mL in series [6]; 0.13 µg/mL (≈ 0.251 µM) in series [7] (strain UC3946). For the same compound, the MIC in [7] (strain UC6159) amounted to 8 µg/mL (≈ 15.5 µM); in [8] (strain UC6093) it was 4 µg/mL (≈ 7.73 µM); in [8] (strain UC6097) it was 4 µg/mL (≈ 7.73 µM); in series [8] (strain UC9203), 4 µg/mL (≈ 7.73 µM); in series [9] (strain UC6531), 0.5 µg/mL (≈ 0.966 µM); in series [9] (strain UC6532), 0.5 µg/mL (≈ 0.966 µM). Moreover, the MIC was 0.5 µg/mL (≈ 0.966 µM) in series [9] (strain UC9582); at most 0.06 µg/mL in [10]; 32 µg/mL (≈ 61.8 µM) in [11] (setting [23]); 32 µg/mL (≈ 61.8 µM) in [11] (setting [24]); over 32 µg/mL in series [12]; at most 0.06 µg/mL in series [13]. Moreover, the MIC is 8 µg/mL (≈ 15.5 µM) in series [14]; 8 µg/mL (≈ 15.5 µM) in [15] (strain UC3784); 16 µg/mL (≈ 30.9 µM) in [15] (strain UC6720); 8 µg/mL (≈ 15.5 µM) in series [15] (strain UC9670); over 32 µg/mL in series [16]; over 32 µg/mL in series [17]. The MIC in series [18] is 32 µg/mL (≈ 61.8 µM); in series [19] it was over 32 µg/mL; in [20], over 32 µg/mL.

Consider `CO/N=C(\C(=O)N[C@@H]1C(=O)N2C(C(=O)O)=C(CSSCc3ccccc3)CS[C@H]12)c1csc(N)n1` [Example 14], for which the MIC in [3] (setting [21]) is 16 µg/mL (≈ 29 µM); in series [3] (setting [22]), 16 µg/mL (≈ 29 µM); in series [5] (strain UC6892) it was at most 0.06 µg/mL; in [6] it was at most 0.06 µg/mL; in [7] (strain UC3946) it was at most 0.06 µg/mL; in series [7] (strain UC6159), 8 µg/mL (≈ 14.5 µM). The MIC in series [8] (strain UC6093) was found to be 1 µg/mL (≈ 1.81 µM); in series [8] (strain UC6097), 1 µg/mL (≈ 1.81 µM); in series [8] (strain UC9203) it was 1 µg/mL (≈ 1.81 µM); in [9] (strain UC6531) it was 0.5 µg/mL (≈ 0.906 µM); in series [9] (strain UC6532), 0.25 µg/mL (≈ 0.453 µM); in series [9] (strain UC9582), 2 µg/mL (≈ 3.63 µM). Also, the minimum inhibitory concentration (MIC) was at most 0.06 µg/mL in [10]; 16 µg/mL (≈ 29 µM) in [11] (setting [23]); 32 µg/mL (≈ 58 µM) in [11] (setting [24]); over 32 µg/mL in [12]; at most 0.06 µg/mL in [13]; 2 µg/mL (≈ 3.63 µM) in [14]. For the same compound, the MIC in series [15] (strain UC3784) is 8 µg/mL (≈ 14.5 µM); in series [15] (strain UC6720), 16 µg/mL (≈ 29 µM); in series [15] (strain UC9670), 8 µg/mL (≈ 14.5 µM); in [16] it was at most 0.06 µg/mL; in series [17], over 32 µg/mL; in series [18], 0.25 µg/mL (≈ 0.453 µM). In addition, the MIC in [19] and in series [20] was over 32 µg/mL in each case.
